Test: Human HepG2 cell viability assay in 384 well format
Type: toxicity, cell-based
Set-up: dose 125 nL, time 70.5 hour; concentration not given beside the values
Conditions: HepG2 cells, read-out: Inhibition

Compound	cytotoxicity at 70.5 h [%]
Cc1cc(C)c(CNC(=O)NCCNc2cnccn2)c(=O)[nH]1	-4.64
CCC(C#N)NC(=O)CCCOc1cccc(C(C)=O)c1 (configuration not stated)	-11.3
O=C(NCc1nc(C2CC2)no1)N1CCOC(c2ccccc2F)C1 (configuration not stated)	-3.4
CCN(C)S(=O)(=O)c1ccc(Cl)cc1C#N	-7.9
CCc1csc(C2CCCN(C(=O)c3ccc(=O)n(C)n3)C2)n1 (configuration not stated)	-11.3
CC(C)c1csc(C2CCCN(C(=O)c3ccc[nH]3)C2)n1 (configuration not stated)	-4.24
Cn1cccc(NC(=O)NCCOCc2ccccc2)c1=O	-13.2
CCS(=O)(=O)N1CCc2c(cccc2NCc2ncc[nH]2)C1	-10
CC(C)SCc1cccc(NC(=O)NC(C)c2nc[nH]n2)c1 (configuration not stated)	-7.97
O=C(NCc1nc(C2CC2)no1)N1CCOC(c2cccc(F)c2)C1 (configuration not stated)	0.958
CC(C)c1csc(C2CCCN(C(=O)c3ccc(=O)n(C)c3)C2)n1 (configuration not stated)	-0.564
COCCOc1ncccc1C(=O)N(C)c1ccc(OC)c(OC)c1	-11.7
CCN(Cc1cccs1)S(=O)(=O)N(C)C(C)C	-18.1
Cc1ncccc1C(=O)NC1CC(=O)N(CC(F)(F)F)C1 (configuration not stated)	-0.154
O=C(O)c1csc(S(=O)(=O)N2CCN(Cc3ccc(Cl)cc3)CC2)c1	-12.5
O=C(O)c1csc(S(=O)(=O)N2CCN(Cc3c(F)cccc3Cl)CC2)c1	-31.1
COC(=O)c1ccc(F)c(S(=O)(=O)Nc2ccc(C(N)=O)cc2)c1	-16.7
COC(=O)c1cccc(S(=O)(=O)Nc2ccc(Cl)c(C(N)=O)c2)c1	-12.3
O=C(NCCOc1ccc(F)cc1)C1CCCN(C(=O)C2CC2)C1 (configuration not stated)	-17.7
CCC(CC)C(=O)NS(=O)(=O)CCc1ccccc1	-23.7
CC(C)c1nnc(CN2CCCC2C(=O)OCc2ccccc2)o1 (configuration not stated)	-10.4
NC(=O)N1CCCC(C(=O)NCCOc2ccc(F)c(F)c2)C1 (configuration not stated)	-12.7
Cc1ccoc1CNC(C)c1nnc2n1CCCC2 (configuration not stated)	13
Cc1ccc(CNC(C)c2nnc3n2CCCC3)o1 (configuration not stated)	-8.48
COCCS(=O)(=O)NC(=O)c1nnn(-c2ccc(F)cc2)c1C1CC1	2
CS(=O)(=O)c1ccc(NC(=O)CSc2ccc3c(c2)CCC3)cc1	1.38

Compound	cytotoxicity at 70.5 h [%]
CCN1CCCC(CNC(=O)CCc2ccc(OC)c(F)c2)C1 (configuration not stated)	-14.6
CNC(=O)C(NC(=O)c1c(C)noc1C)c1ccc(F)c(F)c1 (configuration not stated)	2.39
CCOc1c(OC)cc(/C=C/c2ncc(C(=O)NC)s2)cc1OC	-7.3
CN(C)C(=O)C1CCN(c2cncc(-n3cccn3)n2)CC1	10.2
CNC(=O)c1cnc(/C=C/c2cc(OC)c3c(c2)OCCO3)s1	-6.59
CN(CC(=O)Nc1ccncc1)CC1CCCN1c1cccnn1 (configuration not stated)	-11.4
CNS(=O)(=O)c1cccc(C(C)NCc2ccncc2)c1 (configuration not stated)	-2.51
COCc1nc2cc(NCc3sc(C)nc3C)ccc2o1	-4.53
CNC(=O)C(NC(C)=O)c1ccc(F)c(F)c1 (configuration not stated)	-1.65
O=C(C1SCCc2sccc21)N1CCCCC1 (configuration not stated)	-6.95
O=C(C1SCCc2sccc21)N1CC(O)C1 (configuration not stated)	-5.69
O=C(NCC1(C(=O)O)CCC1)c1nnn(-c2ccc(F)cc2)c1C1CC1	11.7
CNS(=O)(=O)c1cccc(C(C)NCc2ccsc2)c1 (configuration not stated)	-0.542
Cc1ccc(C(CNCc2nccn2C)N2CCOCC2)s1 (configuration not stated)	-2.09
CCn1ccnc1CNCC(c1ccc(C)s1)N1CCOCC1 (configuration not stated)	-7.92
CNS(=O)(=O)c1cccc(C(C)NCc2ccc(F)cc2F)c1 (configuration not stated)	-9.82
CN(C(=O)CN1CCCC1Cc1ccccc1)c1ccccc1 (configuration not stated)	-7.08
CCCC(C)C(=O)Nc1ccc(OC)nc1N1CCN(C(C)=O)CC1 (configuration not stated)	-6.89
OC(CN1CC(n2cccn2)C1)c1ccc2c(c1)OCCO2 (configuration not stated)	-3.2
Cc1ccoc1CNCc1nnc2n1CCCC2C(F)(F)F (configuration not stated)	-3.7
O=C(CCn1cccn1)NCC(c1cccs1)N1CCCC1 (configuration not stated)	-5.3
CC1CCN(C(CNC(=O)Cn2cccn2)c2cccs2)CC1 (configuration not stated)	-7.96
NS(=O)(=O)CCNC(=O)c1cc(Br)c2c(c1)OCCO2	-10.7
NC(=O)CCCNC(=O)c1cc(Br)c2c(c1)OCCO2	-10.4
CC(CC(=O)Nc1ncn(CC(=O)NCc2ccccc2)n1)C1CC1 (configuration not stated)	-14.7
COC(=O)CCNC(=O)c1cc(Br)c2c(c1)OCCO2	-10.5

Compound	cytotoxicity at 70.5 h [%]
Cc1cnn(Cc2cc(F)ccc2F)c1NC(=O)CNC(=O)C1CC1	1.15
CCN(CC)C(=O)CCCNC(=O)Cc1nc(-c2ccco2)oc1C	-12.3
CCOCCCNC(=O)c1cc(Br)c2c(c1)OCCO2	-8.79
CCC(=O)NCC(=O)Nc1c(C)cnn1Cc1cc(F)ccc1F	-5.16
CC(=O)Cn1cc(C#N)c(=O)c2cc(Br)ccc21	-13.6
N#CCCCn1nnc(C2(NC(=O)c3ccccc3)CCCC2)n1	-1.12
CCc1nc2n(n1)CCCC2Nc1nc(C(C)C)ns1 (configuration not stated)	-9.57
COCc1nc2n(n1)CCCC2Nc1nc(C)ns1 (configuration not stated)	24.4
CC(C)CS(=O)(=O)CC(=O)N1CCCC1c1noc(C2CC2)n1 (configuration not stated)	-8.35
COc1cccc(CN(C)C(=O)CN2CCN(c3nccs3)CC2)c1	-9.6
O=C(CN1CCOC(c2ccc(Cl)s2)C1)NCc1ccco1 (configuration not stated)	17
COc1ccc(C(O)CN2CC(n3cc(C)cn3)C2)cc1 (configuration not stated)	-8.25
Cc1cc(C2CN(CC(=O)NCc3ccco3)CCO2)ccc1F (configuration not stated)	-11.9
O=c1oc(-c2cccs2)nn1CC(O)c1ccc2c(c1)CCC2 (configuration not stated)	14.5
CCc1sc(C(=O)NC2CC2)cc1C	8.53
CCCS(=O)(=O)N1CCC(NC(=O)c2cc(CC)c(C)s2)CC1	-0.636
CC(=O)NCCC(=O)NCc1cc(Br)ccc1OC(F)F	-7.14
NC(=O)C1CCCN1Cc1cccc(NC(=O)c2ccc(Cl)cc2F)c1 (configuration not stated)	-20.5
COC(=O)CCSc1nncn1-c1ccc(OC)nc1	4.09
CCc1nc(CCNC(=O)Nc2cccc(C(=O)NC)c2C)cs1	9.84
Cc1cccc(NC(=O)[C@@H]2CCCN2Cc2ccccc2C#N)n1	-10.3
CSCC(=O)NCc1cc(Br)ccc1OC(F)F	-5.17
CC(C)C(=O)NC1CCN(c2cccc(OC(F)(F)F)c2)C1=O (configuration not stated)	8.86
Cc1cc(S(=O)(=O)N2CCCc3cc(Br)ccc32)sc1C(=O)O	-6.91
CCC(CC)NC(=O)CN1CCN(C(=O)N(C)C)CC1	-0.0942
CC(NC(=O)C1CCN(S(N)(=O)=O)CC1)c1cccc(OC(F)F)c1 (configuration not stated)	-1.7

Compound	cytotoxicity at 70.5 h [%]
Cc1ccc(C(=O)N(C)Cc2c(C)noc2C)c(=O)[nH]1	-0.278
O=C(Nc1ccc(F)cc1)C1CCc2ccccc2N1 (configuration not stated)	-1.61
CC(=O)N(C)CC(=O)NCC1(c2cccc(C)c2)CCCC1	1.29
CCOCCNC(=O)c1ccn(S(=O)(=O)c2ccc(C)cc2)c1	-2.02
Cc1nc2n(n1)CC(NCC(=O)NCCC1=CCCCC1)CC2 (configuration not stated)	0.305
Cc1ccc(S(=O)(=O)n2ccc(C(=O)NCC(F)(F)F)c2)cc1	1.3
CCc1ncc2c(n1)CN(C(C)C(=O)N1CCOCC1)CC2 (configuration not stated)	17
CC1(C(=O)NCCN2CCCCC2)CCCN1C(=O)c1ccccc1 (configuration not stated)	-3.21
Cn1c(CCNc2nccnc2C#N)nc2cc(Cl)ccc21	-0.473
Cn1c(CCCNc2nccnc2C#N)nc2ccccc21	1.96
CCC(CNC(=O)c1nc(=O)[nH][nH]1)Oc1ccccc1C(F)(F)F (configuration not stated)	1.22
Cc1nc(NC(=O)NCc2nc3cccc(C)c3n2C)oc1C	13.5
CSCCN(C)C(=O)C1(c2ccc(F)cc2F)CCOCC1	-0.975
CCc1nnc(C(C)N(C)Cc2c(C)nn(-c3ccccc3)c2C)o1 (configuration not stated)	-1.32
CC(NCC1CCN(CCO)CC1)c1cccc(Cl)c1 (configuration not stated)	-2.07
CC(NCC1CCN(CCO)CC1)c1ccc(Cl)cc1 (configuration not stated)	10.5
CN(Cc1ccccc1NCc1cccnc1)C(=O)c1cccs1	-2.02
COc1ccc(C)cc1CN(Cc1ncc(C)o1)C1CCN(C)C1 (configuration not stated)	14.5
CCOc1nnc(CN(Cc2ccccc2)CC(O)c2ccco2)s1 (configuration not stated)	-10.6
CN(Cc1ccc(Br)s1)Cn1nc(-c2ccc(F)cc2)oc1=O	-4.35
O=C1NCCCCC1NS(=O)(=O)N1CCCCCC1 (configuration not stated)	-13.8
CC1CCN(S(=O)(=O)NC2CCCCNC2=O)CC1 (configuration not stated)	-5.25
COc1ccc(CNC(C)c2ccccc2Cl)c(OC)c1OC (configuration not stated)	18.3
Cc1cccc(NC(=O)C2CCc3ccccc3N2)c1 (configuration not stated)	-0.623

Source: ChEMBL document CHEMBL3507680, “University of Dundee, Gates Library screen for HepG2 cell viability”
